{"source": "patent US20240374546A1", "about": "“USES AND METHODS FOR PROMOTING INCREASED MITOCHONDRIAL MASS AND FUNCTION” (Brightseed, Inc., priority 2022, published 2024)", "key": {"HNF4α": {"target": "T1, HNF4α (Mus musculus, UniProt P49698)", "T1 construct": "from tissue; host or cells: liver of C57BL/6J mice", "T1 sequence (P49698 whole entry)": "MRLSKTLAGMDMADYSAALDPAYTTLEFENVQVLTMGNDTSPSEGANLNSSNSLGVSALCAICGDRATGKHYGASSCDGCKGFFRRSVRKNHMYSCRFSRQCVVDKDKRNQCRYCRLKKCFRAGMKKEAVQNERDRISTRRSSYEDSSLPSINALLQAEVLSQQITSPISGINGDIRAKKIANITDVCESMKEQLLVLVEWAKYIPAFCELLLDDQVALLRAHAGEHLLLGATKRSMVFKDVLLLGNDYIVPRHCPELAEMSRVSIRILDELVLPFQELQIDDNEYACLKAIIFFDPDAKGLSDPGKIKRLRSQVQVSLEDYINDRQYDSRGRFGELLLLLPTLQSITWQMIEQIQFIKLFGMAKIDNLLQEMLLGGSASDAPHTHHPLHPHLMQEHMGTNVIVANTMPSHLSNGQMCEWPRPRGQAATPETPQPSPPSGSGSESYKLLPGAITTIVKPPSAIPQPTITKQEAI", "test": "Immunofluorescence of hepatic HNF4α in HFD mice", "format": "in vivo", "conditions": "oral NCT in HFD chow, 10 weeks", "method": "Frozen liver sections were permeabilized using 0.3% Triton-X and incubated in antigen retrieval solution (Antigen retrieval citrate, Biogenex) at sub-boiling temperature for 10 min. Subsequently, sections were incubated with blocking buffer containing 5% normal donkey serum (Jackson Immuno Research) followed by incubation overnight at 4° C. with mouse anti-HNF4α monoclonal antibody (1:800, Cat #PP-H1415-00, R&D Systems), rabbit polyclonal anti-VDAC antibody (1:400, cat #PA1-954A, Invitrogen) and cleaved caspase3 antibody (1:500, cat #9664, Cell Signaling). Sections were washed and incubated for 1 hour at room temperature with anti-mouse secondary antibody coupled with Alexa fluor 488 (1:400, Invitrogen) and antirabbit secondary antibody coupled with rhodamine red. Nuclei were visualized by counterstaining with DAPI (40,6-diamidino-2-phenylindole, Sigma Aldrich). Slides were mounted using fluorescence mounting medium and images were obtained at 40× magnification using an Olympus IX71 fluorescence microscope. Fluorescence intensity of HNF4α-stained nuclei and VDAC stained mitochondria was calculated using MetaMorph TL software (version 7.6.5.0, Olympus). Fold change was calculated by normalizing to values from mice fed NC."}, "[1]": {"test": "Free fatty acid quantification in serum", "format": "in vivo, mouse", "conditions": "HFD+NCT vs HFD, 10 weeks", "method": "Blood samples were collected from dextrose injected mice and centrifuged to collect serum samples. The serum FFA level was measured according to manufacturer's instructions using a Free Fatty Acid Quantification Colorimetric/Fluorometric Kit (Cat #K612, BioVision, USA). Fold change was calculated by normalizing to values from mice fed NC."}, "total cellular NAD": {"tested_on": "total cellular NAD", "test": "Total NAD level in liver lysate", "format": "in vivo, mouse", "conditions": "HFD+NCT vs HFD", "method": "Total NAD level in liver lysate was analyzed according to manufacturer's instructions using a calorimetric NAD+/NADH assay kit (Cat #MET-5014, Cell Biolabs, Inc. USA)"}, "citrate synthase": {"tested_on": "citrate synthase", "test": "Citrate synthase activity in liver homogenate", "format": "in vivo, mouse", "conditions": "HFD+NCT vs HFD", "method": "Citrate synthase activity in liver homogenate was measured according to manufacturer's instructions using a calorimetry based MitoCheck Citrate Synthase Activity Assay Kit (Cat #701040, Cayman Chemicals, USA)."}, "Sirt3 mRNA": {"tested_on": "Sirt3 mRNA", "test": "qPCR mouse liver, Sirtuin3 mRNA", "format": "in vivo", "conditions": "HFD+NCT vs HFD", "method": "(§1) Total RNA was isolated from liver tissues and primary human hepatocytes using Trizol (Invitrogen). cDNA was amplified using 3 μg of total RNA using qScript cDNA SuperMix (Quanta BioSciences, Beverly, MA, USA). Quantitative real time PCR (RT-PCR) analysis was performed using SYBR® Select Master Mix (Applied Biosystems) and an ABI 7900HT thermal cycler (Applied Biosystems, Thermo Fisher Scientific). Ct values were normalized to 18s rRNA and are expressed as fold change over samples from mice fed NC or cultured human hepatocytes without NCT."}, "Parp1 mRNA": {"tested_on": "Parp1 mRNA", "test": "qPCR mouse liver, Parp1 mRNA", "format": "in vivo", "conditions": "HFD+NCT vs HFD", "method": "as §1"}, "Parp2 mRNA": {"tested_on": "Parp2 mRNA", "test": "qPCR mouse liver, Parp2 mRNA", "format": "in vivo", "conditions": "HFD+NCT vs HFD", "method": "as §1"}, "TNFα mRNA": {"tested_on": "TNFα mRNA", "test": "qPCR primary human hepatocytes, TNFα mRNA", "format": "cell-based", "conditions": "NCT 5, 15, 40 μM", "method": "(§2) Experiments with primary human hepatocytes were performed by CN-Bio (Cambridge, UK). Briefly, primary human hepatocytes (PHHs), human Kupffer cells (HKs) and human stellate cells (HSCs) were seeded onto CN-Bio's PhysioMimix LC12 MPS culture plates at 6×10^5 cells for PHHs and 6×10^4 cells for HKs and HSCs in 1.6 ml of CN-Bio's HEP-lean media with 5% FCS. Throughout the experiment the cells were maintained at a flow rate of 1 μl/s. After 24 hours (Day 1) of seeding, the media was changed to HEP-lean media and the cells were incubated until day 4 to allow the cells to form microtissues. At day 4 post seeding, media was changed to HEP-fat media and treated with DMSO or NCT (5, 15, 40 μM). Media was replaced on days 6 and 8. Cells were harvested on day 10 for RNA extraction and culture media was collected for ELISA analysis.\nas §1"}, "IL-6": {"tested_on": "IL-6", "test": "ELISA for IL-6 secreted into medium of primary human hepatocytes", "format": "cell-based", "conditions": "NCT 5, 15, 40 μM", "method": "as §2"}, "nitric oxide (NO)": {"tested_on": "nitric oxide (NO)", "test": "Nitric oxide assay, mouse liver", "format": "in vivo", "conditions": "HFD+NCT vs HFD, normalized to liver weight", "method": "T6PNE cells were maintained in RPMI (5.5 mM glucose, Corning) supplemented with 10% fetal bovine serum (FBS, Sigma-Aldrich) and 1% penicillin-streptomycin (pen-strep, Gibco) in 5% CO2 at 37° C. Cells were treated with […] palmitate plus 0 or 15 μM NCT for 3 days in 10 cm plates and harvested with 500 μl PBS. For tissue specimens, snap frozen mouse liver was weighed and homogenized with PBS. NO was measured with the QuantiChrom Nitric Oxide Assay kit (D2NO-100, BioAssay Systems). Homogenized samples (150 μl) were processed for deproteination with 8 μl ZnSO4 and 8 μl NaOH. For normalization, an aliquot of samples from T6PNE cells was taken for BCA assay before deproteination. Samples and standard from kit incubated with reagents for 20 min at 60° C. and measured OD 540 nm."}, "[2]": {"test": "Subcutaneous delivery of NCT to DIO mice", "format": "in vivo, mouse", "conditions": "2 weeks", "method": "12-week-old C57BL/6J DIO male mice were purchased from Jackson laboratory (cat #380050) and were fed with high fat diet (Research Diets, cat #D12492 60 kcal % fat). […] 14 week old mice were injected subcutaneously using sterile insulin syringes filled with DMSO or NCT (200 mg/kg of mouse body weight) bid for 2 weeks. For oral gavage, 14-week-old C57BL/6J DIO male mice were fed by oral gavage using a feeding needle attached to a sterile 1 ml syringe filled with 200 μL of methyl cellulose (MC, vehicle control) or 200 μL of NCT (200 mg/kg) dissolved in methyl cellulose twice a day for 2 weeks. […] For analysis all mice were sacrificed after 2 weeks of treatment."}, "PPARGC1A (PGC1α) mRNA": {"tested_on": "PPARGC1A (PGC1α) mRNA", "test": "RNA-seq of livers of mice treated for 2 weeks with NCT", "format": "in vivo, mouse", "conditions": "livers of mice treated for 2 weeks (GEO 174848)", "text": "The ability of NCT to increase mitochondrial mass raised the question of the mechanism by which that occurred. […] PPARGC1A plays an important role in mitochondrial biogenesis but is not known to be regulated by HNF4α. […]"}, "[3]": {"test": "Overall tolerability across studies (maximum tolerated dose, two-week IP, long term oral)", "format": "in vivo", "conditions": "short-term maximum tolerated dose study, two-week IP 200 mg/kg bid, long term oral administration", "text": "Given the chronic nature of disorders of lipotoxicity, the lack of discernable toxicity of NCT is critical, but this will obviously require additional investigation in human clinical trials."}}, "note": "“Also recorded” adds a separate entry of the source."}
{"smiles": "O=C(/C=C/c1ccc(O)c(O)c1)NCCc1ccc(O)cc1", "note": "[NCT, N-transcaffeoyltyramine]", "values": [{"measurement": "hepatic HNF4α expression (HFD-induced decrease)", "setting": "HNF4α", "value": "reversed"}, {"measurement": "circulating free fatty acid (FFA)", "setting": "[1]", "value": "no difference"}, {"measurement": "total cellular NAD in liver", "setting": "total cellular NAD", "value": "substantial increase"}, {"measurement": "citrate synthase activity (HFD-induced decrease)", "setting": "citrate synthase", "value": "reversed; also recorded: substantial reversal"}, {"measurement": "Sirt3 mRNA in mouse liver (effect of HFD)", "setting": "Sirt3 mRNA", "value": "almost completely reversed"}, {"measurement": "Parp1 mRNA level", "setting": "Parp1 mRNA", "value": "not modulated"}, {"measurement": "Parp2 mRNA level", "setting": "Parp2 mRNA", "value": "not modulated"}, {"measurement": "TNFα mRNA in cultured human hepatocytes", "setting": "TNFα mRNA", "value": "decreased in a dose-responsive manner"}, {"measurement": "IL-6 protein secreted by cultured human hepatocytes", "setting": "IL-6", "value": "reduced"}, {"measurement": "nitric oxide (NO) in liver", "setting": "nitric oxide (NO)", "value": "decreased"}, {"measurement": "liver color after subcutaneous NCT", "setting": "[2]; 200 mg/kg bid, vs DMSO", "value": "No difference in liver color"}, {"measurement": "outcome of subcutaneous delivery", "setting": "[2]; 200 mg/kg, 2 doses per day, subcutaneous", "value": "compound precipitation"}, {"measurement": "increase in PPARGC1A (PGC1α) mRNA", "setting": "PPARGC1A (PGC1α) mRNA", "value": "approximately 6 fold"}, {"measurement": "deleterious effects / toxicity", "setting": "[3]", "value": "not seen any deleterious effects"}]}
